This is an account of results in US9932320B2 (BRISTOL-MYERS SQUIBB COMPANY, priority 2014, dated 2018).

This assay addresses T1, AAK1 (GST-Xa-hAAK1) (Homo sapiens, UniProt Q2M2I8).
T1 construct: made in house
The experiment in a line: AAK1 Kinase Assay (Caliper LabChip, fluoresceinated peptide substrate). Type of assay: biochemical. As to conditions: AAK1 functional potency; class symbols; read-out: IC50 (nM), functional potency as IC50 ranges. The protocol:
The assays were performed in U-bottom 384-well plates. The final assay volume was 30 μl prepared from 15 μl additions of enzyme and substrates (fluoresceinated peptide (5-FAM)-Aha-KEEQSQITSQVTGQIGWR-NH2 and ATP) and test compounds in assay buffer (10 mM Tris-HCL pH 7.4, 10 mM MgCl2, 0.01% Tween-20 and 1.0 mM DTT). The reactions were initiated by the combination of bacterially expressed, GST-Xa-hAAK1 with substrates and test compounds. The reactions were incubated at room temperature for 3 hours and terminated by adding 60 μl of 35 mM EDTA buffer to each sample. The reactions were analyzed on the Caliper LabChip 3000 (Caliper, Hopkinton, Mass.) by electrophoretic separation of the fluorescent substrate and phosphorylated product. Inhibition data were calculated by comparison to EDTA quenched control reactions for 100% inhibition and vehicle-only reactions for 0% inhibition. The final concentration of reagents in the assays are ATP, 22 μM; (5-FAM)-Aha-KEEQSQITSQVTGQIGWR-NH2, 1.5 μM; GST-Xa-hAAK1, 3.5 nM; and DMSO, 1.6%. Dose response curves were generated to determine the concentration required inhibiting 50% of kinase activity (IC50). Compounds were dissolved at 10 mM in dimethylsulfoxide (DMSO) and evaluated at eleven concentrations. IC50 values were derived by non-linear regression analysis.

SMILES strings stand for the structures.

T1 sequence (Q2M2I8 whole entry): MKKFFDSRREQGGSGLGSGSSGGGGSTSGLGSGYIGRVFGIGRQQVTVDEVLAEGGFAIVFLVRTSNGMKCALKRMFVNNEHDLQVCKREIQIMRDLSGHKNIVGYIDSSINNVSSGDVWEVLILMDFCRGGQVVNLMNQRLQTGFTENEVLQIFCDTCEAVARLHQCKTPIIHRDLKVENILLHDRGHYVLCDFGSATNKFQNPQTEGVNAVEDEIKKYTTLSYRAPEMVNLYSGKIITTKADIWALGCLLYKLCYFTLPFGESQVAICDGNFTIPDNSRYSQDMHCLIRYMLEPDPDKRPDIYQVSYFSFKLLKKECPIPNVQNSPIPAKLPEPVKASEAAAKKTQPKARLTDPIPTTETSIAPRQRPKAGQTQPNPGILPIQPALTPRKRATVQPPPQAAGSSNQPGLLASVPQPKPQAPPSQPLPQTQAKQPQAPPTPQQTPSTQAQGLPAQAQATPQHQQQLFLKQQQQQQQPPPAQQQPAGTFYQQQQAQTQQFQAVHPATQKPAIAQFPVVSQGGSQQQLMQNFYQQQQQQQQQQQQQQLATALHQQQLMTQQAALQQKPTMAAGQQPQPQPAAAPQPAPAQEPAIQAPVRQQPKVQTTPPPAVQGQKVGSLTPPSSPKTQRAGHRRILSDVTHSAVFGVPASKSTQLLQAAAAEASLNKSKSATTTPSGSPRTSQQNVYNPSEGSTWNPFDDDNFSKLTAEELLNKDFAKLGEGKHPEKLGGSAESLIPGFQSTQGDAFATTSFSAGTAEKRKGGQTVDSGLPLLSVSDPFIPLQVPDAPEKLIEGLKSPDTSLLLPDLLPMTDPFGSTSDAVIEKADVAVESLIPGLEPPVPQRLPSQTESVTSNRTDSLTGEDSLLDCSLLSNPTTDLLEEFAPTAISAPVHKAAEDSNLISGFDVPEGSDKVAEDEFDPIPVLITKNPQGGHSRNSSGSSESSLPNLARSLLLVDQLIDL

By IC50 is commonly meant the concentration that gives 50% inhibition. As for `COc1cnccc1-c1ccc2nc(C(N)CC(C)C)ccc2c1` (single isomer, unassigned; (-)) [Example 23, (−)-1-(6-(3-methoxypyridin-4-yl)quinolin-2-yl)-3-methylbutan-1-amine], the IC50 is 101 to 2500 nM.

Take `CC(C)CCc1cc(O)c2cc(-c3ccncc3)ccc2n1` [Example 1, 2-Isopentyl-6-(pyridin-4-yl)quinolin-4-ol]: the IC50 was 11 to 100 nM.

Regarding `COc1cc(CCC(C)C)nc2ccc(-c3ccncc3)cc12` [Example 2, 2-Isopentyl-4-methoxy-6-(pyridin-4-yl)quinoline], the IC50 was in the range of 101 to 2500 nM.

Turning to `CC(C)CCc1cc(Br)c2cc(-c3ccncc3)ccc2n1` [Example 3, 4-Bromo-2-isopentyl-6-(pyridin-4-yl)quinoline], the IC50 was in the range of 11 to 100 nM.

Turning to `CC(C)CCc1ccc2cc(-c3ccncc3)ccc2n1` [Example 4, 2-Isopentyl-6-(pyridin-4-yl)quinoline], the IC50 lay within 101 to 2500 nM.

`CC(C)CCc1cc(N(C)C)c2cc(-c3ccncc3)ccc2n1` [Example 5, 2-Isopentyl-N,N-dimethyl-6-(pyridin-4-yl)quinolin-4-amine]: the IC50 was in the range of 11 to 100 nM.

`CC(C)CCc1cc(C#N)c2cc(-c3ccncc3)ccc2n1` [Example 6, 2-Isopentyl-6-(pyridin-4-yl)quinoline-4-carbonitrile]: the IC50 lay within 11 to 100 nM.

`COc1cc2nc(CCC(C)C)cc(O)c2cc1-c1cnco1` [Example 9, 2-Isopentyl-7-methoxy-6-(oxazol-5-yl)quinolin-4-ol]: the 50% inhibitory concentration (IC50) is 11 to 100 nM.

With `COc1cc2nc(CCC(C)C)cc(Br)c2cc1-c1cnco1` [Example 10, 5-(4-Bromo-2-isopentyl-7-methoxyquinolin-6-yl)oxazole], the IC50 fell in the range of 11 to 100 nM.

For `COc1cc2nc(CCC(C)C)cc(C#N)c2cc1-c1cnco1` [Example 11, 2-Isopentyl-7-methoxy-6-(oxazol-5-yl)quinoline-4-carbonitrile], the IC50 was 11 to 100 nM.

`Cc1nc2ccc(-c3ccncc3)cc2c(O)c1CC(C)C` [Example 14, 3-Isobutyl-2-methyl-6-(pyridin-4-yl)quinolin-4-ol]: the IC50 was 101 to 2500 nM.

As to `CC(C)Cc1cnc2ccc(-c3ccncc3)cc2c1O` [Example 15, 3-Isobutyl-6-(pyridin-4-yl)quinolin-4-ol], the IC50 is 101 to 2500 nM.

As for `CC(C)CCc1nc2ccc(-c3ccncc3)cc2c(O)c1Br` [Example 16, 3-Bromo-2-isopentyl-6-(pyridin-4-yl)quinolin-4-ol], the IC50 was in the range of 11 to 100 nM.

As to `CC(C)CCc1nc2ccc(-c3ccncc3)cc2cc1C(N)=O` [Example 17, 2-Isopentyl-6-(pyridin-4-yl)quinoline-3-carboxamide], the IC50 was 101 to 2500 nM.

Consider `CC(C)CCc1nc2ccc(-c3ccncc3)cc2cc1C#N` [Example 18, 2-Isopentyl-6-(pyridin-4-yl)quinoline-3-carbonitrile], for which the IC50 is 101 to 2500 nM.

In the case of `CC(C)CC(=O)c1ccc2cc(-c3ccncc3)ccc2n1` [Example 19, 3-methyl-1-(6-(pyridin-4-yl)quinolin-2-yl)butan-1-one], the IC50 lay in the range of 101 to 2500 nM.

Turning to `COc1cc(-c2ccc3nc(C(N)CC(C)C)ccc3c2)ccn1` (stereo not shown) [Example 24], the IC50 was 101 to 2500 nM.

For `CC(C)CC(N)c1ccc2cc(-c3ccnc4[nH]ccc34)ccc2n1` (stereo not shown) [Example 25, 1-(6-(1H-pyrrolo[2,3-b]pyridin-4-yl)quinolin-2-yl)-3-methylbutan-1-amine], the IC50 lay within 1 to 10 nM.

Turning to `CC(C)CC(N)c1ccc2cc(-c3ccnc4ccccc34)ccc2n1` (stereo not shown) [Example 26, 1-([4,6′-biquinolin]-2′-yl)-3-methylbutan-1-amine], the IC50 was in the range of 11 to 100 nM.

Take `CC(C)CC(N)c1ccc2cc(-c3ccc4cnccc4c3)ccc2n1` (stereo not shown) [Example 27, 1-(6-(isoquinolin-6-yl)quinolin-2-yl)-3-methylbutan-1-amine]: the IC50 is 101 to 2500 nM.

For the compound `CC(C)CC(N)c1ccc2cc(-c3ccnc(N(C)C)n3)ccc2n1` (stereo not shown) [Example 28, 4-(2-(1-amino-3-methylbutyl)quinolin-6-yl)-N,N-dimethylpyrimidin-2-amine], the IC50 fell in the range of 11 to 100 nM.

Turning to `CC(C)CC(N)c1ccc2cc(-c3ccnc(N)c3)ccc2n1` (stereo not shown) [Example 29, 4-(2-(1-amino-3-methylbutyl)quinolin-6-yl)pyridin-2-amine], the IC50 is 1 to 10 nM.

`CC(=O)Nc1cc(-c2ccc3nc(C(=O)CC(C)C)ccc3c2)ccn1` [Example 30, N-(4-(2-(3-methylbutanoyl)quinolin-6-yl)pyridin-2-yl)acetamide]: the IC50 was in the range of 101 to 2500 nM.

As for `CC(C)CCc1cc(=S)c2cc(-c3ccncc3)ccc2[nH]1` [Example 31, 2-isopentyl-6-(pyridin-4-yl)quinoline-4(1H)-thione], the IC50 lay in the range of 11 to 100 nM.

Regarding `CC(C)CC(OCC(F)(F)F)c1ccc2cc(-c3ccncc3)ccc2n1` (stereo not shown) [Example 32, 2-(3-methyl-1-(2,2,2-trifluoroethoxy)butyl)-6-(pyridin-4-yl)quinoline], the IC50 fell in the range of 101 to 2500 nM.

As to `CC(C)CC(N)c1ccc2cc(-c3ccnc(NC(=O)c4cccc(F)c4)c3)ccc2n1` (stereo not shown) [Example 35, N-(4-(2-(1-amino-3-methylbutyl)quinolin-6-yl)pyridin-2-yl)-3-fluorobenzamide], the IC50 was 11 to 100 nM.

With `CC(=O)Nc1cc(-c2ccc3nc(C(N)C4CCCCC4)ccc3c2)ccn1` (stereo not shown) [Example 36], the IC50 lay in the range of 1 to 10 nM.

As for `CC(C)CC(N)c1cc(-c2nnn[nH]2)c2cc(-c3ccncc3)ccc2n1` (stereo not shown) [Example 37, 3-methyl-1-(6-(pyridin-4-yl)-4-(1H-tetrazol-5-yl)quinolin-2-yl)butan-1-amine], the IC50 is 1 to 10 nM.

For the compound `CC(C)CC(N)c1ccc2cc(-c3ccnc(NC4CC4)c3)ccc2n1` (stereo not shown) [Example 38, 4-(2-(1-amino-3-methylbutyl)quinolin-6-yl)-N-cyclopropylpyridin-2-amine], the IC50 was in the range of 11 to 100 nM.

Consider `N#Cc1cc(C(N)C2CCCCC2)nc2ccc(-c3ccncc3)cc12` (stereo not shown) [Example 41, 2-(amino(cyclohexyl)methyl)-6-(pyridin-4-yl)quinoline-4-carbonitrile], for which the IC50 fell in the range of 101 to 2500 nM.

For `CC(C)CC(N)c1ccc2cc(-c3ccnc(NC(=O)c4ccc(C(F)(F)F)cc4)c3)ccc2n1` (stereo not shown) [Example 42, N-(4-(2-(1-amino-3-methylbutyl)quinolin-6-yl)pyridin-2-yl)-4-(trifluoromethyl)benzamide], the IC50 is 11 to 100 nM.

For `CC(C)CC(N)c1cc(C#N)c2cc(-c3ccncc3)cc(F)c2n1` (stereo not shown) [Example 44, 2-(1-amino-3-methylbutyl)-8-fluoro-6-(pyridin-4-yl)quinoline-4-carbonitrile], the IC50 fell in the range of 11 to 100 nM.

Regarding `CC(=O)Nc1cc(-c2ccc3nc(C(O)CC(C)C)ccc3c2)ccn1` (stereo not shown) [Example 45, N-(4-(2-(1-hydroxy-3-methylbutyl)quinolin-6-yl)pyridin-2-yl)acetamide], the IC50 was in the range of 11 to 100 nM.

For the compound `CC(C)CC(N)c1ccc2cc(-c3ccnc(C4CC4)c3)ccc2n1` (stereo not shown) [Example 50, 1-(6-(2-cyclopropylpyridin-4-yl)quinolin-2-yl)-3-methylbutan-1-amine], the IC50 is 101 to 2500 nM.
